# Measured values taken from US10770169B2, “Method of providing a treatment to a subject based on a dynamic pathway map” (THE REGENTS OF THE UNIVERSITY OF CALIFORNIA, priority 2010, dated 2020).
# Where two headings read alike, the source gives them in different places.
# Key:
# [1] = tested on: panel of 55 breast cancer cell lines; experiment: Cell growth inhibition assay (Cell Titer Glo, 72 h, 9 doses; GI50, TGI, LC50); type: cell-based, human; conditions: Homo sapiens, read-out: GI50 (converted)
# [2] = tested on: luminal, basal, claudin-low and ERBB2AMP breast cancer cell lines; experiment: Associations of clinically relevant subtypes and response (non-parametric ANOVA or t-test on GI50 ranks); type: cell-based, human
# How it was run: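 GI50 values were compared between cell-line subtype groups by non-parametric ANOVA or t-test on ranks. P-values from three test sets were combined and FDR-corrected. Significant three-group effects were followed by post-hoc comparison of each group against all others, and FDR p<0.20 counted as significant.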
smiles,measurement,setting,value
CC(=O)O[C@@]12CO[C@@H]1C[C@H](O)[C@@]1(C)C(=O)[C@H](O)C3=C(C)[C@@H](OC(=O)[C@H](O)[C@@H](NC(=O)OC(C)(C)C)c4ccccc4)C[C@@](O)([C@@H](OC(=O)c4ccccc4)[C@H]21)C3(C)C [Docetaxel],GI50,"[1]; 600MPE cell line, censored GI50 values",97.7 nM
same,GI50,"[1]; AU565, AU565 cell line, censored GI50 values",5.25 nM
same,GI50,"[1]; AU565, cell line AU565",5.25 nM
same,GI50,"[1]; BT-474, BT474 cell line, censored GI50 values",6.31 nM
same,GI50,"[1]; BT-474, cell line BT474",6.31 nM
same,GI50,"[1]; BT-483, BT483 cell line, censored GI50 values",23.4 nM
same,GI50,"[1]; BT-483, cell line BT483",23.4 nM
same,GI50,"[1]; CAMA-1, CAMA1 cell line, censored GI50 values",5.62 nM
same,GI50,"[1]; CAMA-1, cell line CAMA1",5.62 nM
same,GI50,"[1]; HCC38, HCC38 cell line, censored GI50 values",2.04 nM
same,GI50,"[1]; HCC38, cell line HCC38",2.04 nM
same,GI50,"[1]; HCC70, HCC70 cell line, censored GI50 values",5.13 nM
same,GI50,"[1]; HCC70, cell line HCC70",5.13 nM
same,GI50,"[1]; HCC202, HCC202 cell line, censored GI50 values",3.72 nM
same,GI50,"[1]; HCC202, cell line HCC202",3.72 nM
same,GI50,"[1]; HCC1143, HCC1143 cell line, censored GI50 values",11 nM
same,GI50,"[1]; HCC1143, cell line HCC1143",11 nM
same,GI50,"[1]; HCC1187, HCC1187 cell line, censored GI50 values",2.51 nM
same,GI50,"[1]; HCC1187, cell line HCC1187",2.51 nM
same,GI50,"[1]; HCC1395, HCC1395 cell line, censored GI50 values",5.62 nM
same,GI50,"[1]; HCC1395, cell line HCC1395",5.62 nM
same,GI50,"[1]; HCC1419, HCC1419 cell line, censored GI50 values",16.6 nM
same,GI50,"[1]; HCC1419, cell line HCC1419",16.6 nM
same,GI50,"[1]; HCC1428, HCC1428 cell line, censored GI50 values",5010 nM
same,GI50,"[1]; HCC1428, cell line HCC1428",5010 nM
same,GI50,"[1]; HCC1500, HCC1500 cell line, censored GI50 values",2.75 nM
same,GI50,"[1]; HCC1500, cell line HCC1500",2.75 nM
same,GI50,"[1]; HCC1806, HCC1806 cell line, censored GI50 values",2.57 nM
same,GI50,"[1]; HCC1806, cell line HCC1806",2.57 nM
same,GI50,"[1]; HCC1954, HCC1954 cell line, censored GI50 values",1.66 nM
same,GI50,"[1]; HCC1954, cell line HCC1954",1.66 nM
same,GI50,"[1]; HCC2185 cell line, censored GI50 values",3.02 nM
same,GI50,"[1]; HCC3153 cell line, censored GI50 values",9.77 nM
same,GI50,"[1]; LY2 cell line, censored GI50 values",4.27 nM
same,GI50,"[1]; MCF7, MCF7 cell line, censored GI50 values",12.3 nM
same,GI50,"[1]; MCF7, cell line MCF7",12.3 nM
same,GI50,"[1]; MDA-MB-134-VI, MDAMB134VI cell line, censored GI50 values",23.4 nM
same,GI50,"[1]; MDA-MB-175-VII, MDAMB175VII cell line, censored GI50 values",15.8 nM
same,GI50,"[1]; MDA-MB-231, MDAMB231 cell line, censored GI50 values",2.82 nM
same,GI50,"[1]; MDA-MB-231, cell line MDAMB231",2.82 nM
same,GI50,"[1]; MDA-MB-361, MDAMB361 cell line, censored GI50 values",5.62 nM
same,GI50,"[1]; MDA-MB-361, cell line MDAMB361",5.62 nM
same,GI50,"[1]; MDA-MB-415, MDAMB415 cell line, censored GI50 values",2.88 nM
same,GI50,"[1]; MDA-MB-415, cell line MDAMB415",2.88 nM
same,GI50,"[1]; MDA-MB-436, MDAMB436 cell line, censored GI50 values",17 nM
same,GI50,"[1]; MDA-MB-436, cell line MDAMB436",17 nM
same,GI50,"[1]; MDA-MB-453, MDAMB453 cell line, censored GI50 values",4.37 nM
same,GI50,"[1]; MDA-MB-453, cell line MDAMB453",4.37 nM
same,GI50,"[1]; MDA-MB-468, MDAMB468 cell line, censored GI50 values",2.88 nM
same,GI50,"[1]; MDA-MB-468, cell line MDAMB468",2.88 nM
same,GI50,"[1]; SK-BR-3, SKBR3 cell line, censored GI50 values",7.59 nM
same,GI50,"[1]; SK-BR-3, cell line SKBR3",7.59 nM
same,GI50,"[1]; SUM52PE, SUM52PE cell line, censored GI50 values",1.82 nM
same,GI50,"[1]; SUM52PE, cell line SUM52PE",1.82 nM
same,GI50,"[1]; SUM149PT, SUM149PT cell line, censored GI50 values",1.74 nM
same,GI50,"[1]; SUM149PT, cell line SUM149PT",1.74 nM
same,GI50,"[1]; SUM185PE, SUM185PE cell line, censored GI50 values",5010 nM
same,GI50,"[1]; SUM185PE, cell line SUM185PE",5010 nM
same,GI50,"[1]; SUM1315MO2, SUM1315MO2 cell line, censored GI50 values",2.95 nM
same,GI50,"[1]; SUM-159-PT, SUM159PT cell line, censored GI50 values",4.57 nM
same,GI50,"[1]; SUM-159-PT, cell line SUM159PT",4.57 nM
same,GI50,"[1]; UACC-812, UACC812 cell line, censored GI50 values",3.24 nM
same,GI50,"[1]; UACC-812, cell line UACC812",3.24 nM
same,GI50,"[1]; UACC-893, UACC893 cell line, censored GI50 values",11.5 nM
same,GI50,"[1]; UACC-893, cell line UACC893",11.5 nM
same,GI50,"[1]; ZR-75-1, ZR751 cell line, censored GI50 values",28.2 nM
same,GI50,"[1]; ZR-75-1, cell line ZR751",28.2 nM
same,GI50,"[1]; ZR-75-30, ZR7530 cell line, censored GI50 values",3.98 nM
same,GI50,"[1]; ZR-75-30, cell line ZR7530",3.98 nM
same,GI50,"[1]; ZR-75B, ZR75B cell line, censored GI50 values",15.5 nM
same,GI50,"[1]; ZR-75B, cell line ZR75B",15.5 nM
same,GI50,[1]; cell line 600MPE,97.7 nM
same,GI50,[1]; cell line HCC2185,3.02 nM
same,GI50,[1]; cell line HCC3153,9.77 nM
same,GI50,[1]; cell line LY2,4.27 nM
same,GI50,[1]; cell line MDAMB134V,23.4 nM
same,GI50,[1]; cell line MDAMB175V,15.8 nM
same,GI50,[1]; cell line SUM1315MO,2.95 nM
same,subtype-specific response (sensitivity by transcriptional subtype),[2]; GI50 across subtypes,preferential activity in basal and/or claudin-low cell lines
same,Subtype specificity,"[2]; Table 6, most sensitive subtype, FDR p<0.20",Basal
